Test [1] concerns permanent middle cerebral artery occlusion (MCAO) stroke model. Put plainly: Rat permanent middle cerebral artery occlusion (MCAO) stroke model. It is filed as in vivo. Conditions: for neuroprotective activity in vivo: 1 μmol/kg intravenously 30 min post-MCAO. Here is the method:
Administration of peptide (DR9: rrrrrrrrr-NH2; R12, R15, R18, protamine sulphate; protamine) or vehicle (saline: 0.9% NaCl) treatment solution was performed at 30 min post-MCAO. The peptide treatment comprised DR9 in saline (600 μl) to provide an intravenous loading dose of 1 μmol/kg or 1000 nmol/kg given over 5-6 min via the right jugular vein.
This study was approved by the Animal Ethics Committee of the University of Western Australia. Male Sprague Dawley rats weighing 270 g to 350 g were kept under controlled housing conditions with 12 hour light-dark cycle with free access to food and water. Experimental animals were fasted overnight and subjected to permanent middle cerebral artery occlusion (MCAO) as follows.
Anaesthesia was induced with 4% isoflurane and a 2:1 mix of N2O and O2 via mask. Anaesthesia was maintained at 1.7-2% isoflurane. Cerebral blood flow (CBF) was monitored continuously using laser Doppler flowmetry (Blood FlowMeter, AD Instruments, Sydney, Australia). The probe was located 1 mm caudal and 4 mm lateral (right) to the bregma. A cannula was inserted in the right femoral artery to continuously monitor blood pressure and to provide samples for blood glucose and blood gas readings. Blood glucose was measured using a glucometer (MediSense Products, Abbott Laboratories, Bedford, Mass., USA) and blood gases were measured using a blood gas analyser (ABL5, Radiometer, Copenhagen, Denmark). Blood pressure was maintained at 80-100 mmHg. During surgery, rectal temperature was maintained at 37±0.5° C. and warming applied with a fan heater when necessary. For intravenous infusions, a length of PVC line primed with heparinised saline was tied in place in the right jugular vein, then externalised through a dorsal mid-scapular incision to a tether/swivel system (Instech Laboratories, Philadelphia, USA) designed to permit free movement.
The right common carotid artery (CCA) was exposed via a ventral neck incision. […] The isolated section of the ECA was ligated and cauterised to create a stump. The carotid body was removed and the pterygopalatine artery was ligated. A 4-0 nylon monofilament with a 0.39 mm diameter silicone tip (Doccol, Redlands, Calif., USA) was inserted through the ECA stump into the CCA and advanced rostrally into the internal carotid artery (ICA) until the laser Doppler flowmetry recorded a >30% decrease from baseline of cerebral blood flow. The monofilament was secured in two places (at the base of the ECA stump and on the ICA) for the remainder of the experiment. Animals were given post-operative analgesia consisting of pethidine (3 mg/kg intramuscular) and bupivacaine (1.5 mg/kg subcutaneously) at head and leg incision sites.
Post-surgery animals were allowed to recover in a climate-controlled chamber and their core body temperature monitored and maintained at 37±0.5° C. by a cooling/heating fan when required for 3-4 hours.
Animals were sacrificed 24 hours post-MCAO with intra-peritoneal injections of sodium pentobarbitone (900 mg/kg). […] Slices were scanned and images were analysed by an operator blind to treatment status using ImageJ 3rd edition (NIH, USA). The total infarct volume was determined by adding the areas of infarcted tissue on both sides of the 2 mm sections. These measured areas were multiplied by half slice thickness (1 mm), and corrected for cerebral oedema by multiplying the ratio of affected to normal hemisphere areas. […]

Test [2] concerns brain endothelial cells (bEND3 cells). The experiment in a line: In vitro ischemia/OGD model, bEND3 cells. It counts as cell-based. The conditions noted are these: peptide during/after ischemia (FIG. 3c) or 15 min before OGD (FIGS. 23, 24).
Description: A brain endothelial cell line (bEND3) and a neuroblastoma cell line (SH-SY5Y) were also used for some experiments. bEND3 and SH-SY5Y cells were cultured using standard techniques in DMEM plus 5 or 15% foetal calf serum.
The in vitro ischemia model was also used for bEND3 cells, SH-SY5Y cells, and astrocytes. For bEND3 cells anaerobic incubation was extended to 2-3 hours and upon removal from the anaerobic incubator, 60 μl of DMEM/2% FCS was added to wells. […] Upon removal from the anaerobic incubator, 60 μl of DMEM/2% FCS was added to wells.
Twenty-four hours after insult, neuronal cultures were examined by light microscopy for qualitative assessment of neuronal cell viability. Neuronal viability was quantitatively measured by 3-(4,5,dimethyliazol-2-yl)-5-(3-carboxymethoxy-phenyl)-2-(4-sulfophenyl)-2H-tetrazolium salt (MTS) assay (Promega, Australia). The MTS assay measures the cellular conversion of the tetrazolium salt to a water-soluble brown formazan salt, which is detected spectrophotometrically at 490 nm. MTS absorbance data were converted to reflect proportional cell viability relative to both the untreated and treated controls, with the untreated control taken as 100% viability, and presented as mean±SEM. For studies using astrocytes, bEND3, and SH-Y5Y cells, raw MTS data was used to generate graphs. Viability data was analysed by ANOVA, followed by post-hoc Fischer's PLSD test, with P<0.05 values considered statistically significant. Four- to six wells were used in all assays.

Entries after “also recorded” stand apart in the source; their conditions may differ.

In the case of H-RRRRRRRRRRRRRRRRRR-OH [Peptide R18], the “reduction of infarct volume (brain damage)” value in test [1] (1 μmol/kg IV 30 min post-MCAO, infarct volume 24 h post-MCAO (FIGS. 5, 27)) is “approximately 20%”. Further, the “neuroprotective activity in vivo” value in test [1] is recorded as “possessed neuroprotective activity in vivo”.
In the case of `N=C(N)NCCC[C@H](NC(=O)[C@H](CCCNC(=N)N)NC(=O)[C@H](CCCNC(=N)N)NC(=O)[C@H](CCCNC(=N)N)NC(=O)[C@H](CCCNC(=N)N)NC(=O)[C@H](CCCNC(=N)N)NC(=O)[C@H](CCCNC(=N)N)NC(=O)[C@H](CCCNC(=N)N)NC(=O)[C@@H](N)CCCNC(=N)N)C(=O)O` [Peptide R9], the “protection of bEND3 cells (cell death / viability after in vitro ischemia/OGD)” value in test [2] is listed as “reduced; also recorded: able to protect”. Moreover, in test [1], the “neuroprotective activity in vivo” value is “possessed neuroprotective activity in vivo”.

These data come from patent US20160250285A1, “NEUROPROTECTIVE PEPTIDES” (priority 2013, published 2016).
